{"source": "patent US20240026261A1", "about": "“ENGINEERING OF ORGANOID CULTURE FOR ENHANCED ORGANOGENESIS IN A DISH” (THE TRUSTEES OF THE UNIVERSITY OF PENNSYLVANIA, priority 2020, published 2024)", "format_in_all_cases": "cell-based, mouse", "key": {"intestinal organoids": {"tested_on": "intestinal organoids", "test": "Intracellular calcium imaging (Fluo-4) of intestinal organoids", "description": "To assess the level of intracellular calcium, the organoids were labeled with a fluorescent calcium indicator dye (Fluo-4) and monitored their fluorescence in real-time. Given the multicellular complexity of organoids, the mean fluorescence intensity was measured from representative organoids selected for analysis. Upon treatment with 100 μM ATP, organoids in the device increased their fluorescence by approximately 1.6-fold within 60 seconds, which was followed by a gradual decrease to the baseline level (FIG. 4E).\nFor calcium imaging, the organoid media were removed from the culture wells, and the organoid constructs were washed once in live-cell imaging solution (LCIS). The organoids were then loaded with Fluo-4 calcium imaging solution (F10489, ThermoFisher Scientific, USA) prepared according to the manufacturer's protocol. The samples were incubated at 37° C. for 30 minutes, which was followed by another 30-minute incubation at room temperature. Subsequently, the Fluo-4 solution was removed, and the organoids were washed once with LCIS. All samples were kept in fresh LCIS until use. An inverted epi-fluorescence microscope (Axio Observer D1, Zeiss, Germany) was used to visualize calcium staining of organoids upon stimulation with 100 μM of ATP (A1852, Sigma, USA) and 50 mM of glucose (G7021, Sigma, USA).\nFor ratiometric analysis of changes in Ca2+ levels, fluorescence intensity for each or-ganoid was measured during an experiment, and values were normalized by their resting intensities using the equation below.\nΔCa^2+=(F−Frest)/Frest (1)"}, "[1]": {"tested_on": "co-culture microtissues of intestinal organoids and fibroblasts", "test": "Intestinal fibrosis model in OCTOPUS, tissue stiffness by atomic force microscopy", "conditions": "for stiffness of the TGF-β-treated fibrotic tissues (AFM): administered at higher doses", "description": "To further validate the fibrotic phenotype of the model, the stiffness of the TGF-β-treated microtissues was measured by using atomic force microscopy (AFM). This measurement was greatly facilitated by the open-top design of OCTOPUS that allowed direct access of the AFM probe to the tissue constructs in the culture chambers (FIG. 6K). […] As expected, treatment of this model with TGF-01 led to a marked increase in the extent of tissue stiffening and generated co-culture constructs that were 2.9 times stiffer than those in the untreated devices (FIG. 6K).\nThe average stiffness measured in the fibrosis model treated with 0.5 mM Pirfenidone (3.5 kPa) closely matched that of normal tissue constructs (3.3 kPa), illustrating the potential of Pirfenidone to normalize the mechanical property of fibrotic intestinal tissues in the model system.\n(§1) To form an intestinal fibrosis model suitable for, e.g. drug testing, in OCTOPUS, mouse intestinal stem cells were mixed with 1×10^6 cells/ml of mouse intestinal fibroblasts in Matrigel (356255, Corning, USA). This cell-containing hydrogel solution was injected into the device to form microtissue constructs in the organoid culture chambers. After gelation for 15 minutes in a regular cell culture incubator, 750 μl of IntestiCult™ organoid growth medium (06005, STEMCELL Technologies, Canada) was added into each well and maintained for 5 days to induce intestinal organoid development and fibroblast proliferation. During this period, the media were replenished every other day. To induce fibrosis, 1 ng/ml of TGF-β (T5050, Sigma, USA) was added to the culture wells on day 5 and maintained for additional 7 days. Drug administration occurred on day 12 using commercially available Pirfenidone (P1871, TCI America, USA) and Nintedanib (S1010, Selleckchem, USA) at specified concentrations. The fibrosis model was treated with drugs for 48 hours, after which changes in its fibrotic phenotype were analyzed using the methods described herein.\nAtomic force microscopy (AFM, MFP-3D-BIO, Asylum) was used to measure the stiffness of hydrated microtissues in the intestinal fibrosis models. A gold-coated cantilever (SCONT tip, NANOSENSORS) with a spring constant of 14.58 pN/nm and a pyramid indenter was used to obtain force-indentation curves. The tissue samples in the open chambers were used directly without any modification. For the AFM measurement, the OCTOPUS insert containing microtissue was removed from the plate and mounted on the instrument. After wetting the microtissue with a drop of PBS, its mechanical property was measured with the scanning probe. Young's modulus was calculated from the force indentation data using the Atomic J software."}, "[2]": {"tested_on": "co-culture of intestinal organoids and primary intestinal fibroblasts (αSMA)", "test": "TGF-β-induced intestinal fibrosis model in OCTOPUS, αSMA immunofluorescence (fibroblast activation)", "conditions": "for increase in level of αSMA expression in comparison to untreated tissues: TGF-β 1 ng/ml from day 5", "description": "To this end, OCTOPUS was used to set up a co-culture of intestinal organoids and primary intestinal fibroblasts in the same hydrogel scaffold and generate a multicellular construct reminiscent of the intestinal epithelium and its underlying stroma in vivo (FIG. 6A). In this mixed co-culture configuration, the intestinal progenitor cells embedded in Matrigel developed into or-ganoids over the course of 5 days or so, during which fibroblasts began to spread and proliferate around the nascent organoids. […] Prolonged culture in this device led to the formation of microtissues densely populated with enlarged organoids and fibroblasts (FIG. 6C).\n(§2) To simulate the scenario of using this system to assess intestinal fibrosis in a conventional laboratory setting, a common technique widely used for in vitro modeling of fibrosis, which was to treat the co-culture construct with transforming growth factor (TGF)-β, were used. TGF-β plays a central role in the pathogenesis of fibrosis in the intestine and other organs by inducing the activation of fibroblasts and their transdifferentiation into myofibroblasts, which are the key effector cells that drive fibrogenesis. To trigger fibrogenic responses, the model was treated with TGF-β at 1 ng/ml from day 5 to day 12. Exposure of the intestinal microtissue to this condition indeed caused the fibroblasts to acquire the contractile phenotype of myofibroblasts, as evidenced by robust expression of alpha-smooth muscle actin (αSMA) (FIG. 6D). In comparison to untreated tissues, the level of expression increased by more than 1.9- and 2.9-fold by day 8 and day 12, respectively (FIG. 6E).\n(§3) First, fibrotic intestinal tissue constructs in OCTOPUS were generated by forming co-culture organoids over 5 days and exposing them to TGF-β for another 7 days as described above (day 5-day 12). These constructs were then treated with clinically relevant concentrations of the drugs for 48 hours (day 13-day 14) within the therapeutic window identified by viability assessment (data not shown). […] At 0.1 mM, Pirfenidone was effective for altering the contractile phenotype of fibroblasts, as illustrated by 50% reduction in αSMA compared to the untreated control (FIGS. 6L to 6O).\nas §1\n(§4) For immunofluorescence staining, cells in OCTOPUS were washed with PBS twice, fixed with 4% paraformaldehyde (Electron Microscopy Sciences, USA) for 15 minutes at room temperature, and washed again twice with PBS. The cells were then permeabilized with 0.1% Triton X-100 (Sigma) in PBS for 3 minutes and exposed to blocking buffer composed of PBS and 3% bovine serum albumin (BSA; Sigma) for overnight at 4° C. […]"}, "[3]": {"tested_on": "co-culture of intestinal organoids and primary intestinal fibroblasts (fibronectin)", "test": "Intestinal fibrosis model in OCTOPUS, fibronectin (FN) deposition by immunofluorescence", "description": "(§5) The difference between the two groups became evident within 3 days of treatment and remained statistically significant throughout the culture period (FIG. 6I). […] Consistent with the analysis of fibroblast activation and proliferation (FIG. 6E, FIG. 6F), from the comparison between co-culture and monoculture models, intestinal organoids potentiate the fibrogenic effect of TGF-β and promote FN production by fibroblasts (FIG. 6I, FIG. 6J) were identified.\nas §3, §1, §4"}, "[4]": {"tested_on": "co-culture of intestinal organoids and primary intestinal fibroblasts (released fibronectin)", "test": "Intestinal fibrosis model in OCTOPUS, released fibronectin by ELISA of conditioned media", "description": "as §5, §3\nFor the analysis of fibronectin production in the intestinal fibrosis model, a mouse fibronectin ELISA kit (ab108849, abcam, USA) was used. The media in the wells were collected at specified time points and assayed using manufacturer-provided protocols. First, 50 μl of standard or device-collected samples were added into each well and incubated for 2 hours at room temperature. Subsequently, the wells were washed 5 times with 300 μl of wash buffer solution and then incubated with fibronectin antibody for 1 hour. […]\nFor all ELISA assays, a multimode plate reader (M200, Tecan, Switzerland) was used to measure the optical density of samples. […]\n(§6) To form an intestinal fibrosis model suitable for, e.g. drug testing, in OCTOPUS, mouse intestinal stem cells were mixed with 1×10^6 cells/ml of mouse intestinal fibroblasts in Matrigel (356255, Corning, USA). […] The fibrosis model was treated with drugs for 48 hours, after which changes in its fibrotic phenotype were analyzed using the methods described herein."}, "[5]": {"tested_on": "primary intestinal fibroblasts co-cultured with intestinal organoids", "test": "Intestinal fibrosis model in OCTOPUS, fibroblast proliferation", "conditions": "TGF-β 1 ng/ml from day 5; by day 12", "description": "as §2, §6"}, "[6]": {"conditions": "0.5 μM, 48 hours, to levels comparable to Pirfenidone at 0.5 mM"}, "[7]": {"conditions": "higher-dose (0.5 mM) treatment, 48 hours"}}}
{"molecule": "Nc1ncnc2c1ncn2[C@@H]1O[C@H](COP(=O)(O)OP(=O)(O)OP(=O)(O)O)[C@@H](O)[C@H]1O", "note": "[ATP]", "values": [{"measurement": "calcium response of the conventional model (Matrigel drop)", "setting": "intestinal organoids; 100 μM, hydrogel drop culture, versus OCTOPUS", "result": "noticeably slower and occurred to a lesser extent"}, {"measurement": "increase in Fluo-4 fluorescence (intracellular calcium)", "setting": "intestinal organoids; 100 μM, organoids in OCTOPUS, within 60 seconds", "result": "approximately 1.6 fold"}]}
{"molecule": "O=C[C@H](O)[C@@H](O)[C@H](O)[C@H](O)CO", "note": "[D-glucose]", "values": [{"measurement": "increase in intracellular calcium in OCTOPUS", "setting": "intestinal organoids; 50 mM, organoids in OCTOPUS", "result": "greater than that induced by ATP stimulation"}]}
{"molecule": "COC(=O)c1ccc2c(c1)NC(=O)/C2=C(\\Nc1ccc(N(C)C(=O)CN2CCN(C)CC2)cc1)c1ccccc1", "note": "[Nintedanib]", "values": [{"measurement": "stiffness of the TGF-β-treated fibrotic tissues (AFM)", "setting": "[1]; 48 hours", "result": "significantly decreased"}, {"measurement": "fibroblast activation (αSMA)", "setting": "[2]; [6]", "result": "decreased substantially"}, {"measurement": "effects on the fibrosis model (αSMA, FN)", "setting": "[2]; lower dose 0.1 μM, 48 hours", "result": "failed to exert significant effects"}, {"measurement": "FN accumulation", "setting": "[3]; [6]", "result": "decreased substantially"}, {"measurement": "concomitant reduction in the concentration of released FN (ELISA)", "setting": "[4]; 0.5 μM, 48 hours", "result": "not observed"}]}
{"molecule": "Cc1ccc(=O)n(-c2ccccc2)c1", "note": "[Pirfenidone]", "values": [{"measurement": "average stiffness of the treated fibrosis model", "setting": "[1]; 0.5 mM, 48 hours, normal tissue constructs 3.3 kPa", "result": 3.5, "unit": "kPa"}, {"measurement": "stiffness of the TGF-β-treated fibrotic tissues (AFM)", "setting": "[1]; 48 hours", "result": "significantly decreased"}, {"measurement": "reduction in αSMA compared to the untreated control", "setting": "[2]; 0.1 mM, 48 hours, TGF-β-induced fibrotic constructs", "result": 50, "unit": "%"}, {"measurement": "expression of αSMA", "setting": "[2]; dose increased to 0.5 mM, 48 hours", "result": "further decreased"}, {"measurement": "level of αSMA expression versus normal group (healthy intestinal tissue)", "setting": "[2]; [7]", "result": "statistically indistinguishable"}, {"measurement": "immunofluorescence of FN in drug-treated fibrotic constructs", "setting": "[3]; 48 hours treatment", "result": "significantly decreased"}, {"measurement": "level of FN production versus normal group (healthy intestinal tissue)", "setting": "[3]; [7]", "result": "statistically indistinguishable"}, {"measurement": "amount of FN released from the model (ELISA)", "setting": "[4]; 48 hours treatment", "result": "reduced"}]}
{"molecule": "transforming growth factor (TGF)-β [TGF-β]", "values": [{"measurement": "average tissue stiffness", "setting": "[1]; TGF-β-treated co-culture constructs, AFM", "result": 10.1, "unit": "kPa"}, {"measurement": "stiffness of co-culture constructs relative to untreated devices", "setting": "[1]; TGF-β-treated, AFM, 14 days culture", "result": 2.9, "unit": "times"}, {"measurement": "increase in level of αSMA expression in comparison to untreated tissues", "setting": "[2]; by day 8", "result": "more than 1.9 fold"}, {"measurement": "increase in level of αSMA expression in comparison to untreated tissues", "setting": "[2]; by day 12", "result": "> 2.9", "unit": "fold"}, {"measurement": "fibroblast proliferation, cells compared to the untreated control group", "setting": "[5]", "result": "approximately twice as many cells"}, {"measurement": "FN in the pericellular regions of fibroblasts (immunostaining) compared to untreated tissues", "setting": "[3]; TGF-β 1 ng/ml, day 5 to day 12", "result": "substantially increased"}, {"measurement": "released FN (ELISA of conditioned media)", "setting": "[4]; TGF-β 1 ng/ml, day 5 to day 12", "result": "higher levels of released FN"}]}
